For assay [1], the system named is SPC. Description: Treated salmon under refrigeration: SPC. The settings on record: Treated With O3.
Assay [2] has as its system Coliform. In words: Treated salmon under refrigeration: Coliform. The following applies: Treated With O3.

For the compound `O=[O+][O-]` [O3, Ozone], the “Log SPC” value in assay [1] (day 3) is recorded as 0; in assay [1] (day 6), 0; in assay [1] (day 8), 1.643; in assay [1] (day 9) it was 0; in assay [1] (day 10) it was 1.146. Further, the SPC in assay [1] (day 3) is on record as 1; in assay [1] (day 6), 1; in assay [1] (day 8), 44; in assay [1] (day 9), 1; in assay [1] (day 10), 14. The Coliform in assay [2] (day 3), in assay [2] (day 6), in assay [2] (day 8), in assay [2] (day 9) and in assay [2] (day 10) was 0.5 each time.

Source of the values: patent US20080171117A1, “METHODS FOR REDUCING MICROBIAL CONTAMINATION IN SEAFOOD PROCESSING” (Tasker Products Corp., priority 2004, published 2008).
